From patent US20250100998A1, “PARP7 INHIBITORS” (Gilead Sciences, Inc., priority 2023, published 2025)
pEC50: −log10 of the molar value.

Each compound was assayed on STAT1 (phosphorylated at Tyr701) in NCI-H1373 cells (assay: Phospho-STAT1 (Tyr701) LANCE Ultra TR-FRET detection assay). Settings: Homo sapiens, NCI-H1373, 48 h, induction of pSTAT1 in NCI-H1373 cells, 48 hours incubation; normalized to 10 uM positive control and DMSO; 4-parameter fit; read-out: NH1373 pSTAT1 EC50.
Format: cell-based
Experimental: Phospho-STAT1 (Tyr701 LANCE Ultra TR-FRET Detection Assay
LANCE Ultra phospho-STAT1 (Tyr701) kits are designed for the detection of phosphorylated STAT1 in cell lysates using a simple, homogeneous LANCE Ultra sandwich assay (Cat. #TRF4028M). This assay is intended for assessing compound induction of endogenous levels of cellular STAT1 (phosphorylated at Tyr701) in NCI-H1373 cells. The NCI-H1373 cells are cultured in RPMI 1640 media containing 10% heat inactivated FBS, GlutaMAX, 1% Penicillin-Streptomycin. An Echo acoustic liquid handler is used to transfer 60 nanoliters of compound dilutions using the Echo Qualified, 384-well polypropylene microplate clear flat bottom source plates into a Greiner (#781080) cell culture microplate. NCI-H1373 cells are seeded into these compound-spotted culture plates at 30,000 cells/well in a 60 uL volume in growth media. The plates are incubated in a 5% CO2 humidified incubator at 37° C. for 48 hours. […] Briefly, […] of supplemented lysis buffer is added to each well and allowed to shake for 1 hour at 400 rpm. Next, 5 ul of remixed antibody solutions (vol/vol) prepared in detection buffer are added to each well and allowed to incubate at room temperature overnight. After spinning the plate down at 300 rpm for 1 min, the plate is read on an EnVision plate reader set up for Eu3+ Cryptate and fluorescence emission is measured at two different wavelengths (665 nm and 620 nm). The HTRF ratio is then calculated ([…]) for each well to determine the amount of pSTAT1 in the cell lysate, and the data is then normalized to 10 uM (S)-5-((1-(3-oxo-3-(4-(5-(trifluoromethyl)pyrimidin-2-yl)piperazin-1-yl)propoxy)propan-2-yl)amino)-4-(trifluoromethyl)pyridazin-3(2H)-one positive and DMSO negative controls. The values were then plotted as a function of compound concentration and a 4-parameter fit was applied to derive the EC50 values.

How did the pEC50 turn out when `O=c1[nH]ncc(N[C@@H]2C[C@H](Cn3ccc4cc(-c5ncc(C(F)(F)F)cn5)c(F)cc4c3=O)CC[C@@H]2O)c1C(F)(F)F` (racemic) [Example 68, 7-fluoro-2-(((rac-1R,3R,4S)-4-hydroxy-3-((6-oxo-5-(trifluoromethyl)-1,6-dihydropyridazin-4-yl)amino)cyclohexyl)methyl)-6-(5-(trifluoromethyl)pyrimidin-2-yl)isoquinolin-1(2H)-one] was run?
The pEC50 was 7.19.

With `O=c1[nH]ncc(N[C@@H]2C[C@H](Cn3ccc4cc(-c5ncc(C(F)(F)F)cn5)c(F)cc4c3=O)CC(F)(F)C2)c1C(F)(F)F` (single isomer, unassigned) [Example 66] as the compound, how does the pEC50 read?
The pEC50 was 7.53.

How did the pEC50 turn out when `O=c1[nH]ncc(N[C@H]2C[C@@H](Cn3ccc4cc(-c5ncc(C(F)(F)F)cn5)c(F)cc4c3=O)CC(F)(F)C2)c1C(F)(F)F` (single isomer, unassigned) [Example 67] was run?
The pEC50 was 7.00.

`O=c1[nH]ncc(N[C@H]2CCC[C@@H](Cn3ccc4cc(-c5ncc(-n6cccn6)cn5)c(F)cc4c3=O)C2)c1C(F)(F)F` [Example 1, 7-fluoro-2-[[(1R,3S)-3-[[6-oxo-5-(trifluoromethyl)-1H-pyridazin-4-yl]amino]cyclohexyl]methyl]-6-(5-pyrazol-1-ylpyrimidin-2-yl)isoquinolin-1-one] was tested. Which pEC50 did it give?
Its pEC50 is 8.18.

How did the pEC50 turn out when `N#Cc1cnc(-c2cc3ccn(C[C@@H]4CCC[C@H](Nc5cn[nH]c(=O)c5C(F)(F)F)C4)c(=O)c3cc2F)nc1` [Example 2, 2-(7-fluoro-1-oxo-2-(((1R,3S)-3-((6-oxo-5-(trifluoromethyl)-1,6-dihydropyridazin-4-yl)amino)cyclohexyl)methyl)-1,2-dihydroisoquinolin-6-yl)pyrimidine-5-carbonitrile] was run?
The pEC50 was 7.93.

How did the pEC50 turn out when `COc1nc(-c2cc3ccn(C[C@@H]4CCC[C@H](Nc5cn[nH]c(=O)c5C(F)(F)F)C4)c(=O)c3cc2F)ncc1C#N` [Example 3, 2-(7-fluoro-1-oxo-2-(((1R,3S)-3-((6-oxo-5-(trifluoromethyl)-1,6-dihydropyridazin-4-yl)amino)cyclohexyl)methyl)-1,2-dihydroisoquinolin-6-yl)-4-methoxypyrimidine-5-carbonitrile] was run?
The pEC50 was 8.41.

`CC(F)(F)c1cnc(-c2cc3ccn(C[C@@H]4CCC[C@H](Nc5cn[nH]c(=O)c5C(F)(F)F)C4)c(=O)c3cc2F)nc1` [Example 4, 6-(5-(1,1-difluoroethyl)pyrimidin-2-yl)-7-fluoro-2-(((1R,3S)-3-((6-oxo-5-(trifluoromethyl)-1,6-dihydropyridazin-4-yl)amino)cyclohexyl)methyl)isoquinolin-1(2H)-one] was tested. Which pEC50 did it give?
Its pEC50 is 8.65.

How did the pEC50 turn out when `O=c1[nH]ncc(N[C@H]2CCC[C@@H](Cn3ccc4cc(-c5ncc(OC(F)F)cn5)c(F)cc4c3=O)C2)c1C(F)(F)F` [Example 5, 6-(5-(difluoromethoxy)pyrimidin-2-yl)-7-fluoro-2-(((1R,3S)-3-((6-oxo-5-(trifluoromethyl)-1,6-dihydropyridazin-4-yl)amino)cyclohexyl)methyl)isoquinolin-1(2H)-one] was run?
The pEC50 was 8.32.

With `Cc1nc(-c2cc3ccn(C[C@@H]4CCC[C@H](Nc5cn[nH]c(=O)c5C(F)(F)F)C4)c(=O)c3cc2F)ncc1C(F)(F)F` [Example 6, 7-fluoro-6-(4-methyl-5-(trifluoromethyl)pyrimidin-2-yl)-2-(((1R,3S)-3-((6-oxo-5-(trifluoromethyl)-1,6-dihydropyridazin-4-yl)amino)cyclohexyl)methyl)isoquinolin-1(2H)-one] as the compound, how does the pEC50 read?
The pEC50 was 8.29.

With `Cc1nc(-c2cc3ccn(C[C@@H]4CCC[C@H](Nc5cn[nH]c(=O)c5C(F)(F)F)C4)c(=O)c3cc2F)ncc1Cl` [Example 7, 6-(5-chloro-4-methylpyrimidin-2-yl)-7-fluoro-2-(((1R,3S)-3-((6-oxo-5-(trifluoromethyl)-1,6-dihydropyridazin-4-yl)amino)cyclohexyl)methyl)isoquinolin-1(2H)-one] as the compound, how does the pEC50 read?
Its pEC50 is 8.22.

`O=c1[nH]ncc(N[C@H]2CCC[C@@H](Cn3ccc4cc(-c5nc6n(n5)COCCO6)c(F)cc4c3=O)C2)c1C(F)(F)F` [Example 8, 6-(7,8-dihydro-5H-[1,2,4]triazolo[5,1-b][1,5,3]dioxazepin-2-yl)-7-fluoro-2-(((1R,3S)-3-((6-oxo-5-(trifluoromethyl)-1,6-dihydropyridazin-4-yl)amino)cyclohexyl)methyl)isoquinolin-1(2H)-one] was tested. Which pEC50 did it give?
The pEC50 was 8.23.

How did the pEC50 turn out when `O=c1[nH]ncc(N[C@H]2CCC[C@@H](Cn3ccc4cc(-c5ncc6c(n5)NCCO6)c(F)cc4c3=O)C2)c1C(F)(F)F` [Example 9, 6-(7,8-dihydro-6H-pyrimido[5,4-b][1,4]oxazin-2-yl)-7-fluoro-2-(((1R,3S)-3-((6-oxo-5-(trifluoromethyl)-1,6-dihydropyridazin-4-yl)amino)cyclohexyl)methyl)isoquinolin-1(2H)-one] was run?
Its pEC50 is 8.19.

With `CC(O)c1cnc(-c2cc3ccn(C[C@@H]4CCC[C@H](Nc5cn[nH]c(=O)c5C(F)(F)F)C4)c(=O)c3cc2F)nc1` (stereo partly drawn) [Example 10, 7-fluoro-6-(5-(1-hydroxyethyl)pyrimidin-2-yl)-2-(((1R,3S)-3-((6-oxo-5-(trifluoromethyl)-1,6-dihydropyridazin-4-yl)amino)cyclohexyl)methyl)isoquinolin-1(2H)-one] as the compound, how does the pEC50 read?
Its pEC50 is 8.16.

With `CS(=O)(=O)c1ccc(-c2cc3ccn(C[C@@H]4CCC[C@H](Nc5cn[nH]c(=O)c5C(F)(F)F)C4)c(=O)c3cc2F)nc1` [Example 11, 7-fluoro-6-(5-(methylsulfonyl)pyridin-2-yl)-2-(((1R,3S)-3-((6-oxo-5-(trifluoromethyl)-1,6-dihydropyridazin-4-yl)amino)cyclohexyl)methyl)isoquinolin-1(2H)-one] as the compound, how does the pEC50 read?
The pEC50 was 7.87.

`O=c1[nH]ncc(N[C@H]2CCC[C@@H](Cn3ccc4cc(-c5ncc(F)cn5)c(F)cc4c3=O)C2)c1C(F)(F)F` [Example 12, 7-fluoro-6-(5-fluoropyrimidin-2-yl)-2-(((1R,3S)-3-((6-oxo-5-(trifluoromethyl)-1,6-dihydropyridazin-4-yl)amino)cyclohexyl)methyl)isoquinolin-1(2H)-one] was tested. Which pEC50 did it give?
The pEC50 was 7.64.

`CS(=O)(=O)c1cnc(-c2cc3ccn(C[C@@H]4CCC[C@H](Nc5cn[nH]c(=O)c5C(F)(F)F)C4)c(=O)c3cc2F)nc1` [Example 13, 7-fluoro-6-(5-(methylsulfonyl)pyrimidin-2-yl)-2-(((1R,3S)-3-((6-oxo-5-(trifluoromethyl)-1,6-dihydropyridazin-4-yl)amino)cyclohexyl)methyl)isoquinolin-1(2H)-one] was tested. Which pEC50 did it give?
The pEC50 was 8.21.

How did the pEC50 turn out when `O=c1[nH]ncc(N[C@H]2CCC[C@@H](Cn3ccc4cc(-c5ncc(OCC(F)F)cn5)c(F)cc4c3=O)C2)c1C(F)(F)F` [Example 14, 6-(5-(2,2-difluoroethoxy)pyrimidin-2-yl)-7-fluoro-2-(((1R,3S)-3-((6-oxo-5-(trifluoromethyl)-1,6-dihydropyridazin-4-yl)amino)cyclohexyl)methyl)isoquinolin-1(2H)-one] was run?
Its pEC50 is 7.35.

With `CC(C)(O)COc1cnc(-c2cc3ccn(C[C@@H]4CCC[C@H](Nc5cn[nH]c(=O)c5C(F)(F)F)C4)c(=O)c3c(F)c2F)nc1` [Example 16, 7,8-difluoro-6-(5-(2-hydroxy-2-methylpropoxy)pyrimidin-2-yl)-2-(((1R,3S)-3-((6-oxo-5-(trifluoromethyl)-1,6-dihydropyridazin-4-yl)amino)cyclohexyl)methyl)isoquinolin-1(2H)-one] as the compound, how does the pEC50 read?
The pEC50 was 7.51.

`O=c1[nH]ncc(N[C@H]2CCC[C@@H](Cn3ccc4cc(-c5nc6ccc(F)cn6n5)c(F)c(F)c4c3=O)C2)c1C(F)(F)F` [Example 17, 7,8-difluoro-6-(6-fluoro-[1,2,4]triazolo[1,5-a]pyridin-2-yl)-2-(((1R,3S)-3-((6-oxo-5-(trifluoromethyl)-1,6-dihydropyridazin-4-yl)amino)cyclohexyl)methyl)isoquinolin-1(2H)-one] was tested. Which pEC50 did it give?
The pEC50 was 8.94.

With `CC(C)(O)c1cnc(-c2cc3ccn(C[C@@H]4CCC[C@H](Nc5cn[nH]c(=O)c5C(F)(F)F)C4)c(=O)c3c(F)c2F)nc1` [Example 18, 7,8-difluoro-6-(5-(2-hydroxypropan-2-yl)pyrimidin-2-yl)-2-(((1R,3S)-3-((6-oxo-5-(trifluoromethyl)-1,6-dihydropyridazin-4-yl)amino)cyclohexyl)methyl)isoquinolin-1(2H)-one] as the compound, how does the pEC50 read?
The pEC50 was 8.49.

`O=c1[nH]ncc(N[C@H]2CCC[C@@H](Cn3ccc4cc(-c5ccc(C(F)F)cn5)c(F)c(F)c4c3=O)C2)c1C(F)(F)F` [Example 19, 6-(5-(difluoromethyl)pyridin-2-yl)-7,8-difluoro-2-(((1R,3S)-3-((6-oxo-5-(trifluoromethyl)-1,6-dihydropyridazin-4-yl)amino)cyclohexyl)methyl)isoquinolin-1(2H)-one] was tested. Which pEC50 did it give?
Its pEC50 is 8.32.
